What all share (format): toxicity, cell-based
One series relates to Fibroblast. The series can be described thus: Incucyte cell viability with human fibroblast. Particulars: 10 µM, compound concentration 10 uM.
The subject of the next series is U2OS. The series can be described thus: Incucyte cell viability with U2OS. The settings on record: human, 10 µM, compound concentration 10 uM.
Another series deals with HEK-293T. The series can be described thus: Incucyte cell viability with HEK293T. The settings on record: human, 10 µM, compound concentration 10 uM.
[1] abbreviates: 0 h, replicate number 1, timepoint 0 hours.
Setting [2] is: 6 h, replicate number 1, timepoint 6 hours.
[3] abbreviates: 12 h, replicate number 1, timepoint 12 hours.
The mark [4] stands for this setting: 18 h, replicate number 1, timepoint 18 hours.
Where [5] appears, read: 18 h, replicate number 2, timepoint 18 hours.
[6] abbreviates: 24 h, replicate number 1, timepoint 24 hours.
The mark [7] stands for this setting: 0 h, replicate number 2, timepoint 0 hours.
Setting [8] is: 24 h, replicate number 2, timepoint 24 hours.
Where [9] appears, read: 6 h, replicate number 2, timepoint 6 hours.
Where [10] appears, read: 12 h, replicate number 2, timepoint 12 hours.
Further: filed as whole numbers so only -1 and 0 and 1 occur.

On to `N#CC1(c2ccccn2)CCN(Cc2cc(C(=O)O)c(=O)n3ccccc23)CC1` [MSD-M1PAM], for which the “Growth Rate” value is 0 with Fibroblast (setting [1]); 0 in the series with Fibroblast (setting [2]); 0 in the series with Fibroblast (setting [3]); 0 with Fibroblast (setting [4]); 1 in the series on Fibroblast (setting [5]); 0 in the series on Fibroblast (setting [6]). For the same compound, the “Growth Rate” value was 1 in the series with U2OS (setting [7]); 0 in the series on U2OS (setting [2]); 0 in the series with U2OS (setting [3]); 0 with U2OS (setting [4]); 1 in the series on U2OS (setting [5]); 0 in the series on U2OS (setting [6]). The “Growth Rate” value in the series on U2OS (setting [8]) came to 1; in the series on HEK-293T (setting [1]), 1; in the series on HEK-293T (setting [7]), 0; in the series with HEK-293T (setting [2]), 1; in the series on HEK-293T (setting [3]), 1; with HEK-293T (setting [4]) it was 1. Further, the “Growth Rate” value stood at 1 in the series on HEK-293T (setting [6]) and 0 in the series with HEK-293T (setting [8]).
For `c1cc(CN2CCCNCCNCCCNCC2)ccc1CN1CCCNCCNCCCNCC1` [PLERIXAFOR], the “Growth Rate” value with Fibroblast (setting [1]) was 0; in the series with Fibroblast (setting [7]) it was 1; in the series on Fibroblast (setting [2]), 1; with Fibroblast (setting [9]), 0; in the series with Fibroblast (setting [3]), 0; with Fibroblast (setting [4]), 1. In addition, the “Growth Rate” value in the series on Fibroblast (setting [5]) is listed as 0; in the series with Fibroblast (setting [6]), 0; in the series on U2OS (setting [2]), 0; with U2OS (setting [3]), 1; in the series with U2OS (setting [10]), 0; in the series with U2OS (setting [4]) it was 1. Also, the “Growth Rate” value with U2OS (setting [5]) worked out at 0; in the series on U2OS (setting [6]), 1; with U2OS (setting [8]), 0; with HEK-293T (setting [1]) it was 1; with HEK-293T (setting [7]) it was 0; in the series on HEK-293T (setting [2]), 0. Moreover, the “Growth Rate” value with HEK-293T (setting [9]) stood at 1; with HEK-293T (setting [3]), 0; with HEK-293T (setting [4]) it was 0; with HEK-293T (setting [6]), 0.
`COc1ncc(F)cc1CNc1ccc(Cc2c[nH]c3ncc(C)cc23)c(F)n1` [PLX-5622]: the “Growth Rate” value stood at 1 with Fibroblast (setting [7]); 1 with Fibroblast (setting [2]); 0 in the series on Fibroblast (setting [9]); 1 with Fibroblast (setting [3]); 0 with Fibroblast (setting [10]); 0 with Fibroblast (setting [4]). Also, the “Growth Rate” value is given as 1 in the series on Fibroblast (setting [5]); 0 with Fibroblast (setting [6]); 0 in the series on U2OS (setting [7]); 0 with U2OS (setting [2]); 0 in the series with U2OS (setting [3]); 0 in the series on U2OS (setting [4]). Moreover, the “Growth Rate” value in the series with U2OS (setting [6]) is 0; with HEK-293T (setting [1]), 0; in the series with HEK-293T (setting [7]), 1; in the series with HEK-293T (setting [2]) it was 1; in the series on HEK-293T (setting [3]) it was 1; in the series with HEK-293T (setting [4]), 1. Moreover, the “Growth Rate” value in the series with HEK-293T (setting [6]) was found to be 1; with HEK-293T (setting [8]), 0.
For the compound `CC(C)NCC(O)COc1cccc2ccccc12.Cl` (configuration not stated) [PROPRANOLOL HYDROCHLORIDE], the “Growth Rate” value was 0 in the series on Fibroblast (setting [1]); 1 with Fibroblast (setting [2]); 0 in the series on Fibroblast (setting [9]); 1 in the series on Fibroblast (setting [3]); 0 in the series with Fibroblast (setting [10]); 1 with Fibroblast (setting [4]). Further, the “Growth Rate” value with Fibroblast (setting [5]) is listed as 0; in the series on Fibroblast (setting [6]) it was 1; with Fibroblast (setting [8]), 0; in the series with U2OS (setting [1]) it was 0; in the series with U2OS (setting [2]), 0; in the series with U2OS (setting [3]), 1. In addition, the “Growth Rate” value with U2OS (setting [4]) is 1; in the series with U2OS (setting [6]) it was 1; in the series on HEK-293T (setting [7]), 0; in the series on HEK-293T (setting [2]), 0; in the series with HEK-293T (setting [9]), 1; in the series on HEK-293T (setting [3]), 0. Further, the “Growth Rate” value with HEK-293T (setting [4]) and in the series with HEK-293T (setting [6]) was 0 in each case.

(Values after ChEMBL document CHEMBL4689842, “EUbOPEN Chemogenomics Library wave 1” (2021).)
